Entries after “also recorded” stand apart in the source; their conditions may differ.
Legend:
pancreatic cancer = conditions: 126 patients, 63 per group; ref [3]; cited from earlier work
Text: In 1997, Burris, et al. published a clinical study comparing Gemcitabine to 5-Fluoruracil (5-FU) for the treatment of pancreatic cancer. In this study, 126 patients were enrolled with 63 per treatment group. […] The median survival was 5.65 months for Gemcitabine and 4.41 months for 5-FU. […] This trial encouraged the ...

[1] = molecular target: T1, EphA2 ligand binding domain (EphA2-LBD) (Homo sapiens, UniProt P29317); assay: Isothermal titration calorimetry (ITC), EphA2 LBD; conditions: 50 mM phosphate buffer pH 6.5, 100 mM NaCl, as given in legend
T1 construct: made in house
Description: (§1) To further verify the binding affinity and selectivity of the resulting conjugates for the EphA2 ligand binding domain (LBD), we expressed and purified EphA2 and […]. These proteins were dissolved to a final concentration of 100 μM in 50 mM phosphate buffer (pH = 6.5), containing 100 mM NaCl.
(§2) All linear peptides and peptide mimetics were assembled using standard Fmoc peptide synthesis protocol with the Rink amide resin on 433A Peptide Synthesizer (Applied Bio-Systems). In general, in each coupling reaction, approximately 10 equivalents of Fmoc-amino acid, 0.45 M solution of HOBt/HBTU (9 equiv) in DMF, 2 M solution of DIEA in NMP were used, for about 9 minutes. Fmoc de-protection was performed with 20% piperidine in DMF for 10 min. Each peptide was subsequently cleaved from the resin and all protecting groups removed by exposure to a 94% TFA, 2 % water, 2% tri-isopropylsilane, 2% phenol mixture for approximately 3 h. The TFA mixture was subsequently removed under reduced pressure and the peptides were precipitated in diethyl ether, centrifuged, and washed with diethyl ether prior to drying in high vacuum. The crude peptides were purified by preparative reverse phase HPLC. The final compounds were characterized by NMR and MALDI-Mass. […] EphA2-LBD and EphA3-LDB were expressed as reported recently. […]

[2] = test system: EphA3 ligand binding domain (EphA3-LBD); assay: Isothermal titration calorimetry (ITC), EphA3 LBD; conditions: 50 mM phosphate buffer pH 6.5, 100 mM NaCl, ~50% sequence identity with the EphA2 LBD
Description: as §1, §2

[3] = test system: MIA PaCa-2-luc pancreatic cancer xenografts; assay: MIA PaCa-2-luc subcutaneous xenograft, 123B9-L2-Gem study; assay type: in vivo, human tumor cells in athymic nude mice
Description: Similarly, in a separate experiment we compared the efficacy of equimolar doses of Gemcitabine and 123B9-L2-Gem (Figure 3C, 3D).
(§3) Isothermal Titration Calorimetry (ITC) measurements were obtained with Model ITC200 from Microcal/GE Life Sciences. For in vivo studies, all drugs were diluted in 10% Tween-80, 10% DMSO, and 80% PBS.
(§4) 5 × 10^6 MIA PaCa-2-luciferase cells were used to establish bilateral subcutaneous tumors on the flanks of 8–10 week old male athymic nude mice. Studies were done as previously described. Treatment began when tumors reached a palpable size (∼50–100 mm^3) with 9 mice per group. All drugs were administered by tail vein injection twice per week for 4 weeks, for a total of 8 injections. […] BLI measurements were performed at the beginning and end of the study. During imaging, mice were placed in the imaging chamber and maintained with 2% isoflurane gas anesthesia at a flow rate of approximately 0.5–1 L/min per mouse. Anesthetized mice were injected IP with 150 mg/kg body weight D-Luciferin (Xenogen Corporation, Alameda, CA). After approximately 10 min, mice were imaged using a charge-coupled-device (CCD) camera coupled to the Xenogen in vivo imaging (IVIS) imaging system (Caliper Life Sciences, Inc., Hopkinton, MA).
Tumors were measured twice per week using calipers. […]

[4] = test system: MIA PaCa-2-luc pancreatic cancer xenografts; assay: MIA PaCa-2-luc subcutaneous xenograft, YNH-L2-Gemcitabine study; assay type: in vivo, human tumor cells in athymic nude mice; conditions: for effect on tumor growth: 10 mg/kg Gemcitabine or equimolar conjugate, tail vein, twice per week for 4 weeks, 9 mice/group, caliper tumor volume and BLI; for survival time: Kaplan-Meier, days, mice sacrificed when moribund, Supplementary Figure S2 top
Description: MIA PaCa-2-luc cells were used to create bilateral subcutaneous xenografts in athymic nude mice. […] Cells were injected into each flank and then allowed to grow for approximately 1 week. At this point, mice were imaged using BLI and treatment was subsequently initiated. Mice were divided into 4 groups (PBS, Gemcitabine, YDH-L2-Gemcitabine, YNH-L2-Gemcitabine) with 9 mice/group. YDH-L2-Gemcitabine is a scrambled control, where the peptide attached to Gemcitabine should not be specific for EphA2 and, therefore, should not bind to the receptor. Animals were treated 2 times per week via tail vein injection for 4 weeks. A dose of 10 mg/kg Gemcitabine was used along with equimolar doses of YDH-L2-Gemcitabine and YNH-L2-Gemcitabine. At the end of 4 weeks, animals were again imaged and treatment was ended.
as §3, §4
Tumors were measured twice per week using calipers. For in vivo studies, data shown are the mean + SEM and for statistical comparisons we used the two-way Anova analyses (GraphPad). After their last injection, mice were kept for 1 additional week to monitor tumor growth and imaged at the end of that week. The mice were then kept to monitor for the effects of treatment on survival. Mice were kept until reaching a moribund status and they were then sacrificed at that time.

[5] = test system: metastatic pancreatic cancer; set-up: method as in PMID 24131140; conditions: 861 patients, ref [36]; cited from earlier work
Text: There is a vital need to develop novel therapies that provide greater clinical benefit to patients without undue toxicity. A Phase 3 clinical study in patients with metastatic pancreatic cancer evaluated nab-Paclitaxel (Abraxane) + Gemcitabine versus Gemcitabine alone in a total of 861 patients.

hENT1 = test system: hENT1; set-up: method as in PMID 22978251; conditions: sodium-independent transporter; ref [4]; cited from earlier work
Text: (§5) Though there are multiple mechanisms of Gemcitabine resistance, one important mechanism revolves around expression of this protein. […] Patients with higher hENT1 expression have tumors that can more readily take ...

tumors expressing hENT1 = test system: tumors expressing hENT1; set-up: method as in PMID 16818496; conditions: high versus lower hENT1 expression; ref [5]; cited from earlier work
Text: as §5

T1 sequence (P29317 28-206 limits assumed): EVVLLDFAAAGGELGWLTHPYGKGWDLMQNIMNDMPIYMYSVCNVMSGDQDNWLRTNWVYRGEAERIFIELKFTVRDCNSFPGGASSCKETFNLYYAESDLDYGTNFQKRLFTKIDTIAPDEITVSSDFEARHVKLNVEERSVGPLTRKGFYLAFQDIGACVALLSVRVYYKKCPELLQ

Row | Structure (SMILES) | median survival (pancreatic cancer) [months] | patients alive at 12-month time point (pancreatic cancer) [%] | patients with clinical benefit (pancreatic cancer) [%] | binding to EphA3 LBD (in words) [2] | effect on tumor growth [4] | survival time [4] | other results
1 | O=c1[nH]cc(F)c(=O)[nH]1 [5-FU, 5-Fluoruracil] | 4.41 | 2 | 4.8 | – | – | – | –
2 | CCCC[C@H](NC(=O)[C@@H]1CCCN1C(=O)[C@@H](NC(=O)[C@H](CO)NC(=O)[C@H](CC(=O)O)NC(=O)[C@@H]1CCCN1C(=O)[C@H](Cc1ccc(O)cc1)NC(=O)[C@H](C)NC(=O)[C@H](CO)NC(=O)COc1ccc(F)c(Cl)c1)C(C)C)C(=O)N[C@@H](CCO)C(=O)N[C@@H](CO)C(=O)N[C@@H](CCCCNC(=O)CCCc1cn(CCCCCC(=O)O[C@@H]2[C@@H](CO)O[C@@H](n3ccc(N)nc3=O)C2(F)F)nn1)C(N)=O [123B9-L2-Gem] | – | – | – | No appreciable binding was detected | – | – | ΔH, binding to EphA2 LBD [1]: -11 kcal/mol; survival time ([3]; Kaplan-Meier, days, mice sacrificed when moribund, Supplementary Figure S2 bottom): significantly longer than both untreated and Gemcitabine treated groups; also recorded: significant increase in survival time; also recorded: prolong survival; effect on tumor growth ([3]; equimolar doses, equivalent of 10 mg/Kg Gemcitabine, tail vein, twice per week for 4 weeks, caliper tumor volume and BLI, 10 mg/kg): significantly more effective than gemcitabine alone in suppressing tumor growth; also recorded: significant efficacy was observed
3 | Nc1ccn([C@@H]2O[C@H](CO)[C@@H](O)C2(F)F)c(=O)n1 [Gemcitabine] | 5.65 | 18 | 23.8 | – | had a modest effect on tumor growth; also recorded: did not exhibit significant efficacy compared to mice treated with vehicle only as control | significant increase in the median survival time compared to untreated mice | median survival [5]: 6.7 months; response rate [5]: 7%; survival rate at 1 year [5]: 22%; survival rate at 2 years [5]: 4%; transport by hENT1 (hENT1): preferentially transport Gemcitabine; survival advantage with high tumor hENT1 expression (tumors expressing hENT1): greater survival advantage with Gemcitabine treatment as compared to those with lower hENT1 expression
4 | CCCC[C@H](NC(=O)[C@@H]1CCCN1C(=O)[C@@H](NC(=O)[C@H](CO)NC(=O)[C@H](CC(=O)O)NC(=O)[C@@H]1CCCN1C(=O)[C@H](Cc1ccc(O)cc1)NC(=O)[C@H](C)NC(=O)[C@H](CO)NC(=O)[C@@H](N)Cc1ccc(O)cc1)C(C)C)C(=O)N[C@@H](CCO)C(=O)N[C@@H](CO)C(=O)N[C@@H](CCCCNC(=O)CCCc1cn(CCCCCC(=O)O[C@@H]2[C@@H](CO)O[C@@H](n3ccc(N)nc3=O)C2(F)F)nn1)C(N)=O [YNH-L2-Gem] | – | – | – | No appreciable binding was detected | significant efficacy was observed | prolong survival | effect on tumor growth ([4]; listed as YNH-L2-Gemcitabine): showed the greatest inhibition of tumor growth of all groups evaluated; also recorded: inhibits tumor growth in vivo to a greater extent as compared to Gemcitabine; survival time ([4]; listed as YNH-L2-Gemcitabine): significant increase in the median survival time compared to untreated mice

— PMC4941374, “Therapy of pancreatic cancer via an EphA2 receptor-targeted delivery of gemcitabine” (Oncotarget, 2016)
